{
  "source": "patent US20120165340A1",
  "about": "“PTEN PHOSPHORYLATION-DRIVEN RESISTANCE TO CANCER TREATMENT AND ALTERED PATIENT PROGNOSIS” (Ludwing Institute for Cancer Research Ltd., priority 2009, published 2012)",
  "key": {"Ink4a/Arf-/- astrocytes": {"system": "Ink4a/Arf-/- astrocytes", "test": "Drug sensitivity assay, cell viability by WST-1", "type": "cell-based, mouse", "details": "72 hours", "source_text": "Mouse Astrocytes. Ink4a/Arf^−/−1 and Pten^loxP/loxP 2 mice were obtained from the NCI mouse depository and intercrossed to generate described genotypes. Primary astrocytes were isolated from the neocortex of 4 day old pups, using standard astrocyte isolation culture conditions (Bachoo et al 2002). Conditional deletion of Pten^loxP/loxP was accomplished by infecting astrocyte cultures with adenovirus expressing Cre recombinase under the CMV promoter (Gene TransferVector Core, University of Iowa, Iowa City, Iowa). Effective Pten deletion was verified by western blot. EGFRvIII was expressed in these cells by retroviral infection as described previously (Bachoo et al 2002). (Reference: Bachoo, R. M. et al. Epidermal growth factor receptor and Ink4a/Arf: convergent mechanisms governing terminal differentiation and transformation along the neural stem cell to astrocyte axis. Cancer Cell 1, 269-77 (2002)).\nDrug sensitivity assays. Cells were plated at 1000 cells/well in 96 well plates and allowed to adhere for four hours prior to addition of Erlotinib and/or Dasatinib or solvent (DMSO) control. Cells were maintained in 5% serum during drug treatments and cell viability was measured using WST-1 assay (Clontech) following 72 hours exposure to drug.\nStatistical analysis. For quantitation and analysis of immunohistochemistry data, see above. For analysis of drug sensitivity data, 2-way ANOVA was performed using the KaleidaGraph program (Synergy Software)."}, "Lyn": {"molecular_target": "Lyn (Homo sapiens, UniProt P07948)", "sequence (P07948 whole entry, species assumed)": "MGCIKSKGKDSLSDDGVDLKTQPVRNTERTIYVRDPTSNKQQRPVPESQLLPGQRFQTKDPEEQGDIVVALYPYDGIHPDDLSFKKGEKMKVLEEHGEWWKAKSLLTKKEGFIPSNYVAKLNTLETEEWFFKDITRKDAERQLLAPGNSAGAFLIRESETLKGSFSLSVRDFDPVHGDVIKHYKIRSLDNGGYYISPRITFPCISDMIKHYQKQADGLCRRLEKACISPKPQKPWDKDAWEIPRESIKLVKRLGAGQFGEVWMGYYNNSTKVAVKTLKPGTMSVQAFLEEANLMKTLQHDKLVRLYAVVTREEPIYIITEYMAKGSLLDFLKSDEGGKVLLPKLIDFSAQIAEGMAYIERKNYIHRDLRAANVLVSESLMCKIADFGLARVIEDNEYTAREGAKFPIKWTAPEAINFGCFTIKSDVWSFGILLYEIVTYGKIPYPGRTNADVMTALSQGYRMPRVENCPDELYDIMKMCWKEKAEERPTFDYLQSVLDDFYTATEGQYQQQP", "details": "cited from earlier work"}, "[1]": {"system": "Ph+ leukemia cells which express wt and mutated BCR-ABL", "details": "mouse, in vivo; cited from earlier work"}, "[2]": {"details": "in vivo; cited from earlier work"}, "anti-pY240 PTEN antibody": {"system": "anti-pY240 PTEN antibody", "test": "Peptide competition of anti-pY240 immunostaining", "type": "binding", "details": "tissue sections from human GBM with wild type PTEN", "source_text": "Immunohistochemistry: Tissue sections were cut from blocks of formalin-fixed paraffin tumor tissue from glioblastoma patients treated at UCLA with the EGFR kinase inhibitors (erlotinib or gefitinib), including a subset of patients previously described^2. Tumor specimens were obtained according to a protocol approved by the institutional review board of UCLA. Pre-treatment tumor tissue was examined for 19 patients; post-treatment tissue was examined from 8 patients, including 7 patients for whom pre- and post-treatment tissue was available. […]"}, "GBM39 cells": {"system": "GBM39 cells", "test": "PTEN Y240 phosphorylation in GBM39 glioma cells, western blot", "type": "cell-based, human", "details": "pervanadate 100 μM for 15 minutes", "protocol": "Mice were sacrificed by CO2 inhalation followed by cervical dislocation, according to institutional guidelines. Subcutaneous tumors were removed and tumor tissue was minced into 0.1-0.5 mm^3 chunks in a 60 mm dish with 5 ml of freshly prepared, filter-sterilized digestion solution (12,500 units of Collagenase Type 2, 12,500 units of Collagenase Type 4, 20 mL DMEM (Serum Free), 20 uL of 1 mg/mL DNAase I). Tissue was placed into a sterile 15 ml specimen cup with an additional 10 ml of digestion solution and shaken (150 rpm) at 37 C for 3 hours before filtration through a 70/40 um filter. After centrifugation at 1000 rpm for 3 minutes, the supernatant was discarded. The pellet was resuspended in 1 ml of ACK buffer (150 mM NH4Cl, 10 mM KHCO3, 0.1 mM Na2EDTA, adjusted to pH 7.2-7.4 with 1N HCl) and incubated at room temperature for 3 minutes to lyse red blood cells. Cells were pelleted by centrifugation at 1000 rpm for 3 minutes and resuspended in culture medium (DMEM containing 10% fetal bovine serum plus L-glutamine and penicillin/streptomycin). Cell viability was determined by trypan blue exclusion and cells were plated at a density of approx 10^6 cells per 100 mm culture dish. Cells were maintained under standard cell culture conditions (37 C, 5% CO2 in a humidified incubator) and all experiments were conducted in cells prior to p4. […]"}},
  "note": "Non-standard residues stand in square brackets, D forms with d. No end group written: not given here. pY = N[C@@H](Cc1ccc(OP(=O)(O)O)cc1)C(=O)O",
  "data": [
    {"molecule": "C#Cc1cccc(Nc2ncnc3cc(OCCOC)c(OCCOC)cc23)c1", "note": "[Erlotinib]", "values": [
      {"measurement": "sensitivity to Erlotinib (cell viability)", "setting": "Ink4a/Arf-/- astrocytes; EGFRvIII PTEN-null astrocytes reconstituted with PTEN Y240F mutant", "value": "significantly sensitized these cells to sub-micromolar doses"},
      {"measurement": "sensitivity to Erlotinib (cell viability)", "setting": "Ink4a/Arf-/- astrocytes; EGFRvIII astrocytes reconstituted with WT PTEN", "value": "resistant to clinically achievable doses"},
      {"measurement": "sensitivity to Erlotinib (cell viability)", "setting": "Ink4a/Arf-/- astrocytes; PTEN-null astrocytes expressing EGFRvIII", "value": "resistant to clinically achievable doses"},
      {"measurement": "sensitivity to Erlotinib (cell viability)", "setting": "Ink4a/Arf-/- astrocytes; astrocytes expressing WT PTEN, with versus without EGFRvIII", "value": "sensitizes astrocytes expressing WT PTEN to Erlotinib"}
    ]},
    {"molecule": "Cc1ccc(NC(=O)c2ccc(CN3CC[C@H](N(C)C)C3)c(C(F)(F)F)c2)cc1Nc1nccc(-c2cncnc2)n1", "note": "[INNO-406]", "values": [
      {"measurement": "Lyn inhibition versus phosphorylation of Src, Blk or Yes", "setting": "Lyn", "value": "inhibits Lyn without affecting the phosphorylation of Src-family kinases Src, Blk or Yes"},
      {"measurement": "growth of Ph+ leukemia cells in murine CNS", "setting": "[1]", "value": "does inhibit growth"},
      {"measurement": "concentrations in the CNS relative to those in plasma", "setting": "[2]", "value": "about 10%"}
    ]},
    {"molecule": "FMY[243.03]FEFPQPLPVC[160.03]GDIK: Phosphorylated PTEN Y240 peptide that competes away antibody staining (FM[pY]FEFPQPLPVCGDIK; not fully specified (residue 13); printed as FMY[243.03]FEFPQPLPVC[160.03]GDIK; also: modified cysteine C13 (C[160.03]))", "values": [
      {"measurement": "competition of antibody staining in immunostaining", "setting": "anti-pY240 PTEN antibody", "value": "competes away antibody staining"}
    ]},
    {"molecule": "pervanadate", "values": [
      {"measurement": "induction of Y240 phosphorylation", "setting": "GBM39 cells", "value": "substantial increase in Y240 phosphorylation"}
    ]}
  ]
}
